# Earlier results as cited in paper PMC7465636 (Biomolecules, 2020).
# Columns and labels:
# [1] = system: knockout of P. falciparum PfSR25; parameters: method as in PMID 28842684; settings: knockout versus wild type; cited from earlier work
# P. falciparum W2 = settings: cited from earlier work
# P. falciparum D10 = settings: cited from earlier work
# P. falciparum Dd2 = settings: cited from earlier work
Structure (SMILES),susceptibility of PfSR25 knockout parasite to the drug [1],IC50 (P. falciparum W2) [µM],IC50 (P. falciparum D10) [µM],IC50 (P. falciparum Dd2) [µM]
Clc1ccc2c(N3CCN(CCCN4CCN(c5ccnc6cc(Cl)ccc56)CC4)CC3)ccnc2c1 [piperaquine],more susceptible,,,
COc1cc([N+](=O)[O-])ccc1-n1cc(COC2=C(CC=C(C)C)C(=O)C=C(C)C2=O)nn1 [V],,4.1,,
O=C(Cn1cc(CNc2ccnc3cc(Cl)ccc23)nn1)N1CCCCC1 [IV],,,0.0136,0.0434
CN(C)C(Cn1cc(-c2ccccc2)nn1)NCc1ccccc1Cl (stereo not drawn) [II],,,11.3,13
